# According to the supplement of paper PMC10307832:
# Tests used:
# Motesanib = compound: CC1(C)CNc2cc(NC(=O)c3cccnc3NCc3ccncc3)ccc21 [Motesanib]; assay: relative viability (nuclei count vs DMSO), 5 days (fraction); higher = more cells survive
# Summary of the method: (§1)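 Viability here means nuclei in treated wells divided by nuclei in vehicle wells, reported as the median across plates. Only plates with control CV below 25% and at least one doubling passed. Lung cancer cell lines in 1536-well plates were exposed to five √10-spaced library-drug doses for 5 days and counted from 4× Hoechst images in MetaXpress.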
# [1] = compound: C[C@@]1(C(=O)Nc2ccc(F)nc2)CCCN1c1nc(Nc2cc(C3CC3)n[nH]2)c2cccn2n1; assay: as above
# Summary of the method: as §1
Cell Line,relative viability (Motesanib; 0.01 µM),relative viability (Motesanib; 0.03162 µM),relative viability (Motesanib; 0.1 µM),relative viability (Motesanib; 0.3162 µM),relative viability (Motesanib; 1 µM),relative viability ([1]; 0.04 µM),relative viability ([1]; 0.1265 µM),relative viability ([1]; 0.4 µM),relative viability ([1]; 1.265 µM)
LU99A,0.911,1.03,0.905,1.02,0.98,0.72,0.645,0.6,0.381
LXF-289,0.991,0.999,1.02,1.15,1.03,1.03,0.978,0.997,1.03
NCI-H23,1.02,0.915,0.758,1.08,1.04,0.788,0.501,0.523,0.553
NCI-H322M,1.04,0.993,0.988,0.946,0.954,0.853,0.602,0.644,0.728
NCI-H358,0.973,0.948,0.959,1.16,1.2,0.752,0.46,0.237,0.326
NCI-H441,1.02,1.06,0.981,1.08,1.16,0.719,0.549,0.664,0.703
NCI-H460,0.999,0.974,0.981,1.02,1,0.982,1.01,1.01,0.953
NCI-H520,0.931,1.03,0.971,1.05,0.906,0.977,0.915,0.953,0.99
NCI-H522,0.939,1.01,1.06,1.06,1.07,0.925,0.836,0.754,0.878
NCI-H596,1.2,0.921,0.928,0.908,0.964,1.02,0.846,0.902,0.939
NCI-H647,0.827,1,0.93,1.06,0.988,1.05,0.869,0.848,0.86
NCI-H650,0.976,1.04,0.992,1.07,0.907,0.841,0.649,0.784,0.585
NCI-H661,0.972,1.02,0.985,1.04,0.964,1.04,1.04,1.01,0.875
NCI-H727,0.83,1,0.9,0.974,0.849,0.677,0.38,0.36,0.414
NCI-H838,1.04,0.962,0.985,1.02,0.932,0.942,0.76,0.693,0.736
NCI-H1299,1.01,0.999,1.04,1.02,1.05,1.05,0.954,1.02,1.04
NCI-H1355,1.03,1.02,0.978,1.04,1.01,0.96,0.794,0.797,0.818
NCI-H1395,0.814,0.84,0.95,0.866,0.924,0.916,0.825,0.922,0.755
NCI-H1437,0.964,0.958,0.998,1,0.957,1.04,0.918,0.679,0.714
NCI-H1563,1.04,0.973,1.09,0.953,0.994,1.04,0.918,0.805,0.934
NCI-H1623,1.06,1.08,0.901,0.964,0.926,0.809,0.79,0.678,0.622
NCI-H1648,0.744,0.658,0.71,1.1,0.556,0.837,0.57,0.499,0.636
NCI-H1650,1.03,0.792,1.06,0.947,0.927,0.894,0.843,0.798,0.699
NCI-H1651,1.02,0.912,0.946,0.962,0.947,0.956,0.883,0.82,0.923
NCI-H1666,1.04,0.965,0.976,0.99,1.08,0.932,0.83,0.773,0.753
NCI-H1703,0.911,0.901,0.52,0.286,0.236,0.97,0.807,0.716,0.778
NCI-H1734,0.968,1.01,0.948,1.07,1.01,0.855,0.721,0.651,0.615
NCI-H1755,1.01,0.989,1.03,1.07,1.03,1.02,0.875,0.92,0.958
NCI-H1792,0.742,0.805,0.908,0.918,1.12,0.602,0.423,0.383,0.295
